Square brackets hold non-standard residues; d marks the D form. Ends that are not written are not given here. deamidated = deamidated asparagine; Met(O) = CS(=O)CC[C@H](N)C(=O)O
Test system: mouse ADAMTS7
Experiment: TMT10 TAILS N-terminomics, SMC1 experiment (Ad-mADAMTS7 WT vs EQ vs Luc, technical replicates, trypsin digest)
Format: cell-based
Details: for logFC.mWT.over.mEQ: TAILS neo-N-terminal peptide abundance, log fold change, Ad-mADAMTS7 WT over EQ; for SMC1 logFC.mWT.over.mEQ: TAILS HC Overlap, log fold change mouse ADAMTS7 WT over catalytically inactive EQ
Procedure, shortened: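 Full-length mouse ADAMTS7 (WT or E373Q mutant, C-terminal 3xFLAG) or luciferase was transduced via adenovirus, 50 MOI, into HCA-SMC (SMC1, SMC2) or HUVEC. SMC1: pooled media, technical triplicates 400 ug; SMC2: process triplicates 300 ug; HUVEC: process triplicates 200 ug, bFGF2 10 ng/ml.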

Substance | logFC.mWT.over.mEQ | SMC1 logFC.mWT.over.mEQ
CDC37_43 (FQKEKEELDR; listed as Homo sapiens) | 1.88 | 
CDH11_467 (HQEAKVPVAIR; listed as Homo sapiens) | 2.06 | 
CLEC11A_50 (HLQEALGLPAGR; listed as Homo sapiens) | 1.42 | 
COL1A2_80 (QYDGKGVGLGPGPMGLMGPR; listed as Homo sapiens) | 2.36 | 
COL1A2_91 (GPMGLMGPR; listed as Homo sapiens) | 1.16 | 
COL1A2_113 (FQGPAGEPGEPGQTGPAGAR; listed as Homo sapiens) | 2.27 | 
COL1A2_270 (VGNAGPAGPAGPR; listed as Homo sapiens) | 2.82 | 
COL1A2_305 (LTGAKGAAGLPGVAGAPGLPGPR; listed as Homo sapiens) | 1.63 | 
COL1A2_389 (SAGPPGPPGLR; listed as Homo sapiens) | 0.72 | 
COL1A2_425 (ASGPAGVR; listed as Homo sapiens) | 1.34 | 
COL1A2_630 (VGTAGPSGPSGLPGER; listed as Homo sapiens) | 1.45 | 
COL1A2_681 (VGAPGPAGATGDR; listed as Homo sapiens) | 1.60 | 
COL1A2_731 (AAGQPGAKGER; listed as Homo sapiens) | 1.03 | 
COL1A2_866 (LLGAPGILGLPGSR; listed as Homo sapiens) | 3.72 | 
COL1A2_960 (AGAPGPHGPVGPAGKHGNR; listed as Homo sapiens) | 2.91 | 
COL1A2_1028 (LQGLPGIAGHHGDQGAPGSVGPAGPR; listed as Homo sapiens) | 1.79 | 
COL1A2_1037 (HHGDQGAPGSVGPAGPR; listed as Homo sapiens) | 3.09 | 
COL1A2_1127 (SLRPKDYEVDATLKSLNNQIETLLTPEGSR; listed as Homo sapiens) | 2.68 | 
COL4A2_71 (YNGPPGLQGFPGLQGR; listed as Homo sapiens) | 2.14 | 

Substance | logFC.mWT.over.mEQ | SMC1 logFC.mWT.over.mEQ
COL4A2_172 (YALPKEER; listed as Homo sapiens) | 5.21 | 
COL5A1_544 (SQAQAILQQAR; listed as Homo sapiens) | 1.08 | 
COL8A1_90 (MKEIQPAPR; listed as Homo sapiens) | 1.35 | 
COL18A1_1505 (LQPPVVQLHDSNPYPR; listed as Homo sapiens) | 1.42 | 
ECM1_43 (YAAPPSPPLSR; listed as Homo sapiens) | 0.68 | 
LTBP2_1602 (EAGVHFR; listed as Homo sapiens) | 0.99 | 
MAN2A1_51 (LQEKIDHLER; listed as Homo sapiens) | 1.86 | 
MAP1B_1065 (LTTPTKQLGAQSPGR; listed as Homo sapiens) | 1.30 | 
MAP4_815 (AVASTGPSSR; listed as Homo sapiens) | 1.19 | 
MAP4_816 (VASTGPSSR; listed as Homo sapiens) | 1.62 | 
MGAT4B_28 (LSGQKGDVVDVYQR; listed as Homo sapiens) | 1.66 | 
MMP1_24 (LETQEQDVDLVQKYLEKYYNLKN(deamidated)DGR; listed as Homo sapiens) | 2.31 | 
NID2_291 (HSSVPLGR; listed as Homo sapiens) | 4.04 | 
NID2_374 (VGGPDLKGQVEPWDER; listed as Homo sapiens) | 4.94 | 
NID2_467 (LEDNIGSNTEVFTYNAANKETCEHNHR; listed as Homo sapiens) | 2.66 | 
NID2_951 (YAYPGAR; listed as Homo sapiens) | 3.92 | 
NUCB1_228 (LKEVWEELDGLDPNR; listed as Homo sapiens) | 1.63 | 
NUCB1_317 (FLASTQR; listed as Homo sapiens) | 4.87 | 
NUCB1_389 (LQQAVLHMEQR; listed as Homo sapiens) | 2.09 | 

Substance | logFC.mWT.over.mEQ | SMC1 logFC.mWT.over.mEQ
OS9_54 ([code q]SQSSDVVIVSSKYKQR; also: modified N-terminal Gln; listed as Homo sapiens) | 2.81 | 
OS9_55 (SQSSDVVIVSSKYKQR; listed as Homo sapiens) | 2.29 | 
PAPPA_41 (AAGPATCATR; listed as Homo sapiens) | 3.48 | 
PDLIM4_104 (IDPEIQDGSPTTSR; listed as Homo sapiens) | 1.13 | 
POLR3G_88 (LFCSHWSHIPGFK; listed as Homo sapiens) | 1.51 | 
POSTN_413 (FSDDTLSMDQR; listed as Homo sapiens) | 2.31 | 
POSTN_754 (IITGPEIKYTR; listed as Homo sapiens) | 1.68 | 
POSTN_790 (FIEGGDGHLFEDEEIKR; listed as Homo sapiens) | 1.18 | 
POSTN_807 (LLQGDTPVR; listed as Homo sapiens) | 1.17 | 
PPP1R18_295 (LSETLTR; listed as Homo sapiens) | 3.68 | 
PSAP_171 (F[Met(O)]ANIPLLLYPQDGPR; listed as Homo sapiens) | 1.03 | 
PXDN_1341 (SYQEDKPTKKTR; listed as Homo sapiens) | 5.26 | 
PXDN_1393 (QKTITDLR; listed as Homo sapiens) | 4.77 | 
SERBP1_56 (QAAAQTNSNAAGKQLR; listed as Homo sapiens) |  | 4.06
SRGN_59 (LLPGESNKIPR; listed as Homo sapiens) |  | 4.33
THBS2_290 (LSENLKR; listed as Homo sapiens) |  | 4.05
VIM_314 (QESTEYR; listed as Homo sapiens) |  | 2.60
VIM_333 (LKGTNESLER; listed as Homo sapiens) |  | 4.39
